From patent US10596267B2, “Method and process for quantitative evaluation of pharmacokinetics, therapeutic effects and safety of delivery of drug compounds to the inner ear for treatment of auditory disease” (The Charles Stark Draper Laboratory, Inc., priority 2016, dated 2020)

Test system: guinea pig cochleae
Assay: Reciprocating inner ear delivery of DNQX by micropump via cochleostomy; CAP and DPOAE hearing measurements
Conditions: pump infusion via cochleostomy at the basal turn
Experimental: Infusion began at t=0. A hearing threshold is the minimum sound pressure level (measured in dB SPL) required to generate a response. Data reported are threshold shifts, the change in threshold as compared to baseline. […] CAP amplitudes are also shown, with a legend that is on a log scale.
Reciprocating inner ear delivery and electronically-controlled dosing in a guinea pig model using a pump to infuse a drug via a cochleostomy (made at the basal turn) was evaluated. The drug reservoir was loaded with the glutamate receptor antagonist DNQX (which disrupts hair-cell-to-auditory-nerve synaptic transmission resulting in attenuation of compound action potentials (CAPs) generated in response to auditory stimuli). The molecular weight (232 Daltons) and physicochemical characteristics of DNQX make it a suitable model for evaluating the potential of other small molecule candidates for inner ear delivery. […] DPOAE responses from hair cells (which are not altered by DNQX) were monitored as a control for nonspecific effects.
In the experiments described herein, drug concentration was not measured directly, but was inferred by mapping the drug-mediated CAP inhibition along the length of the ST to calculate drug concentrations at a given location.

## O=[N+]([O-])c1cc2nc(O)c(O)nc2cc1[N+](=O)[O-] [DNQX]
  DPOAE over time (control for nonspecific effects, mechanical damage or conductive hearing loss): lack of alterations in DPOAE over time
tone-pip-evoked CAP
  compound action potential (CAP) after initiation of drug delivery: reduction in CAP
